In patent publication US12643893B2, “Heteroaryl-pyridinium compound and redox flow battery comprising the same” (Korea Advanced Institute of Science and Technology, priority 2021, dated 2026):

What was measured:
[1] = Cyclic voltammetry (CV) in three-electrode cells; type: physicochemical; conditions: for Peak to peak potential difference (ΔEp) / Ratio of anodic peak current (Ipa) to cathodic peak current (Ipc) (Ipa/Ipc) @50 mV s^−1: 1st event (or only value); for Ipa/Ipc @50 mV s^−1 / ΔEp: 1st event (single value for BTMAP-Fc); for potential shift after CV cycles: FIG. 7
Experimental: All electrochemical examinations were carried out using a Biologic VMP3 electrochemical workstation in an Ar-filled glove box (MOTek, negligible O2 and H2O, tested by the ketyl solution).
Cyclic voltammetry (CV) was conducted in three-electrode cells comprised of glassy carbon (GC; diameter (d)=3 mm) as the working electrode (WE), a platinum wire as the counter electrode (CE), and a leak-free Ag/AgCl as the reference electrode (RE). The GC electrodes were polished using alumina slurry before testing (ALS Co., Ltd).
After CV analysis, ferrocene (Fc, ferrocene, 98%, Sigma-Aldrich) was added to the cell to measure its redox potential, and the measured sample potential was converted to the Fc/Fc^+.

[2] = Solubility test (UV-vis calibration curves, maximum solubility); conditions: for solubility: organic solvent or mixture, thermodynamic from solid
[3] = Rotating disk electrode LSV, diffusion coefficient (Levich equation); type: physicochemical
Experimental: To measure diffusion coefficient (D), rotating disk electrode (RDE; ALS Co., Ltd) measurements were conducted with the same three-electrode cells. […] Limited mass-transport provides a current plateau (iL) of redox processes, which is linearly proportional to the square root of the rotating rates (ω^1/2). The diffusion coefficient (D) was calculated by plotting IL as a function of ω^1/2 and through the Levich equation (equation S1). iL=0.620nFAD^2/3ω^1/2η^−1/6Co (equation S1)
where IL is the limiting current (A cm^−2), n is the number of electrons transferred during the redox reaction, F is the Faraday's constant (96485 C mol^−1), A is the area of the electrode (0.0707 cm^2), D is the diffusion coefficient (cm^2 […]), ω is the angular rotation rate (rad s^−1), η is the kinematic viscosity (0.00442 cm^2 s^−1, referred to 0.1 M TBAPF6/MeCN), and Co is the concentration of the sample chemical.

[4] = Electron-transfer rate from CV curves (Nicholson method); type: physicochemical
Experimental: The electron-transfer rate (k^0) was calculated from CV curves and using the Nicholson method(equation S2).
where k^o is the electron-transfer constant (cm/s), D is the diffusion coefficient estimated from the above RDE studies, R is the gas constant (8.314 J K^−1 mol^−1), T is the temperature (298 K), v is the scan rate of the CVs (mV s^−1).
The Ψ value was obtained by Kingler and Kochi relation (equation S3).
where ΔEp is the peak-to-peak potential for the corresponding reduction or oxidation event.

[5] = after 100 cycles (in parentheses)
[6] = initial, 10 mM in 0.1 M TBABF4/MeCN
[7] = 1st redox event (or the only value given), 10 mM in 0.1 M TBABF4/MeCN
[8] = 2nd redox event, 10 mM in 0.1 M TBABF4/MeCN
[9] = c1, first cathodic event (single value for BTMAP-Fc, oxidation process)
[10] = MeCN, Solubility (M) in MeCN, in MeCN

Row | Compound | Peak to peak potential difference (ΔEp) [1, 5] | Ratio of anodic peak current (Ipa) to cathodic peak current (Ipc) (Ipa/Ipc) @50 mV s^−1 [1, 5] | Peak to peak potential difference (ΔEp) [1, 6] | Ratio of anodic peak current (Ipa) to cathodic peak current (Ipc) (Ipa/Ipc) @50 mV s^−1 [1, 6] | Formal potential (E^o′) [1, 7] | Formal potential (E^o′) [1, 8] | solubility [2, 10] [M] | potential shift after CV cycles [1] | other results
1 | Cc1cc(-c2nc3ccccc3s2)cc(C)[n+]1C [DiMe-BTP^+·BF4^−, 4-(benzo[d]thiazol-2-yl)-1,2,6-trimethylpyridin-1-ium tetrafluoroborate] | 81 mV | 0.88 | 89 mV | 0.89 | 1st = −1.33 V vs. Fc/Fc^+ | 2nd = −1.94 V vs. Fc/Fc^+ | – | – | cyclability in the CV profile ([1]; 100 CV cycles, FIGS. 6 and 7): excellent cyclability
2 | C[n+]1ccc(-c2nc3ccccc3o2)cc1 [BOP^+·BF4^−, 4-(benzo[d]oxazol-2-yl)-1-methylpyridin-1-ium tetrafluoroborate] | 1st = 105 (105) mV | 0.46 | 1st = 105 (105) mV | 0.79 | 1st = −1.15 V vs. Fc/Fc^+ | – | – | – | –
3 | C[N+](C)(C)CCC[n+]1ccc(-c2nc3ccccc3s2)cc1 [TMAP-BTP^2+·2PF6^−, 4-(benzo[d]thiazol-2-yl)-1-(3-(trimethylammonio)propyl)pyridin-1-ium hexafluorophosphate] | – | – | – | – | – | – | – | – | solubility ([2]; 0.5 M TBAPF6 in MeCN, maximum solubility in electrolyte solution, 0.5 M TBAPF6/MeCN): 0.026 M; Solubility (M) MeCN ([2]; in MeCN): 0.25 M; Solubility (M) in MeCN ([2]; in MeCN): 0.25 M; maximum solubility in MeCN ([2]; in MeCN): 250 mM
4 | C[N+](C)(C)CCC[c-]1cccc1.C[N+](C)(C)CCC[c-]1cccc1.O=S(=O)([N-]S(=O)(=O)C(F)(F)F)C(F)(F)F.O=S(=O)([N-]S(=O)(=O)C(F)(F)F)C(F)(F)F.[Fe+2] [BTMAP-Fc·2TFSI^−, 1,1′-bis[3-(trimethylammonio)propyl]ferrocene dibis-trifluoromethanesulfonimidate, reference compound] | – | – | – | – | – | – | – | – | Ipa/Ipc @50 mV s^−1 [1, 5]: 1.03 (1.03); ΔEp [1, 5]: 149 (149) mV; Ipa/Ipc @50 mV s^−1 ([1]; initial): 1.03 (1.03); ΔEp ([1]; initial): 149 (149) mV; E^o′ ([1]; 1st redox event (single value for BTMAP-Fc), 4 mM in 0.1 M TBATFSI/MeCN): −0.03 V vs. Fc/Fc^+; Formal potential (E^o′) ([1]; first redox event (single event for BTMAP-Fc), CV, 4 mM in 0.1 M TBATFSI/MeCN): −0.03 V vs. Fc/Fc^+; peak-to-peak potential difference (ΔEp) ([1]; maintained for 100 CV cycles): ~150 mV; anodic-to-cathodic peak current ratio (Ipa/Ipc) ([1]; preserved during 100 CV cycles): about 1; diffusion coefficient (D) ([3]; 0.1 M TBATFSI/MeCN): 2.0×10^−6 cm^2 s^−1; D (diffusion coefficient) [3, 9]: 2.00 X10^−6 cm^2 s^−1; electron-transfer constant (k^o) ([4]; 0.1 M TBATFSI/MeCN): 0.034 cm/s; k^o (electron-transfer constant) [4, 9]: 0.034 cm/s
5 | c1ccc2sc(-c3cc[n+](CCCCC[n+]4ccc(-c5nc6ccccc6s5)cc4)cc3)nc2c1 [Di-BTP^2+·2PF6^−, 1,1′-(pentane-1,5-diyl)bis(4-(benzo[d]thiazol-2-yl)pyridin-1-ium) hexafluorophosphate] | – | – | – | – | – | – | 0.1 | – | –
6 | CCCCCCCCCC[n+]1ccc(-c2nc3ccccc3s2)cc1 [Dec-BTP^+·BF4^−, 4-(benzo[d]thiazol-2-yl)-1-decylpyridin-1-ium tetrafluoroborate] | 102 mV | 0.91 | 99 mV | 0.93 | 1st = −1.24 V vs. Fc/Fc^+ | 2nd = −1.96 V vs. Fc/Fc^+ | 0.07 | positive (+) potential shift | –
7 | COCC[n+]1ccc(-c2nc3ccccc3s2)cc1 [MOE-BTP^+·BF4^−, 4-(benzo[d]thiazol-2-yl)-1-(2-methoxyethyl)pyridin-1-ium tetrafluoroborate] | 107 mV | 0.98 | 104 mV | 1.00 | 1st = −1.24 V vs. Fc/Fc^+ | 2nd = −1.97 V vs. Fc/Fc^+ | 0.1 | positive (+) potential shift | –
8 | CCCCCC[n+]1ccc(-c2nc3ccccc3s2)cc1 [Hex-BTP^+·BF4^−, 4-(benzo[d]thiazol-2-yl)-1-hexylpyridin-1-ium tetrafluoroborate] | 124 mV | 0.99 | 125 mV | 0.98 | 1st = −1.36 V vs. Fc/Fc^+ | 2nd = −2.13 V vs. Fc/Fc^+ | 0.23 | positive (+) potential shift | –
9 | C[n+]1ccc(-c2nc3ccccc3s2)cc1 [BTP^+·BF4^−, 4-(benzo[d]thiazol-2-yl)-1-methylpyridin-1-ium tetrafluoroborate] | – | – | – | – | – | – | – | – | solubility ([2]; 0.5 M TBABF4 in MeCN, maximum solubility in electrolyte solution, 0.5 M TBABF4/MeCN): 0.087 M; Solubility (M) 0.5M TBAPF6/MeCN ([2]; electrolyte solution, head prints 0.5M TBAPF6/MeCN): 0.087 M; Solubility (M) MeCN ([2]; in MeCN): 0.26 M; Solubility (M) in MeCN ([2]; in MeCN): 0.26 M; maximum solubility in MeCN ([2]; in MeCN): 260 mM
10 | Cn1c(-c2cc[n+](C)cc2)nc2ccccc21 [BIP^+·BF4^−, 1-methyl-4-(1-methyl-1H-benzo[d]imidazol-2-yl)pyridin-1-ium tetrafluoroborate] | 99 (99) mV | 0.73 | 99 (99) mV | 0.71 | −1.41 V vs. Fc/Fc^+ | – | – | – | –
